Measurements as given in article PMC8003416, “Modulation of Human Phenylalanine Hydroxylase by 3-Hydroxyquinolin-2(1H)-One Derivatives” (Biomolecules, 2021).

Tests used:
[1] = target: T1, human phenylalanine hydroxylase (hPAH) (Homo sapiens, UniProt P00439); assay: Surface plasmon resonance, immobilized hPAH; assay type: binding; conditions: for KD (steady-state affinity constant) / Kd: 25 °C, 3HQs up to 200 μM, no saturation (lower limits); for Kd: read-out: KD (steady-state affinity constant)
T1 construct: Recombinant full-length wild-type (WT) hPAH was expressed in E. coli Top10 cells in fusion with a hexa-histidyl peptide; made in house; host or cells: E. coli Top10
T1 sequence (P00439 1-452): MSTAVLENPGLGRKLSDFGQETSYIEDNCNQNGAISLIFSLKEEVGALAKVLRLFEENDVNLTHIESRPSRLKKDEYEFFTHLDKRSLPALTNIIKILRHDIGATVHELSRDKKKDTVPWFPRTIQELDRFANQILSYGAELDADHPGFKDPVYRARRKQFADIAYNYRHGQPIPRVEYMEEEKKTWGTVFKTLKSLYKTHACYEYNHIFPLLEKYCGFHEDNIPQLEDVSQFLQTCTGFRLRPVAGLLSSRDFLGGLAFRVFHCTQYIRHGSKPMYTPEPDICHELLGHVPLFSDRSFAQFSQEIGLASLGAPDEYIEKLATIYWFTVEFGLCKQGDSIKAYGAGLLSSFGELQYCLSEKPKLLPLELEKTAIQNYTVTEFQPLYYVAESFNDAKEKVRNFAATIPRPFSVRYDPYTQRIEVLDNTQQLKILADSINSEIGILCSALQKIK
Description: The affinity of hPAH for 3HQs was evaluated by surface plasmon resonance (SPR) using a Biacore 4000 (GE Healthcare) instrument. All assays were carried out at 25 °C. Optimization of hPAH immobilization on a carboxymethylated dextran (CM5) matrix of the sensor chip was initiated by performing a pH scouting, using as buffers 10 mM sodium acetate (pH 5.0, 5.2, 5.5 and 5.8), 10 mM Bis-Tris (pH 6.0, 6.2 and 6.5), and 10 mM sodium phosphate (pH 7.0). hPAH was diluted to 10 µg/mL in the best immobilization buffer (10 mM sodium acetate pH 5.5) and immobilized onto the CM5 sensor chip using the standard amine coupling procedure. The HBS-N buffer, consisting of 10 mM HEPES pH 7.4 and 150 mM NaCl, was used as background buffer. Prior to immobilization, the carboxymethylated surface of the chip was activated with a 1:1 ratio of 400 mM 1-ethyl-3-(3-dimethylaminopropyl)-carbodiimide and 100 mM N-hydroxysuccinimide for 10 min. The hPAH was coupled to the surface with a 1 to 2 min injection time at a flow rate of 10 μL/min in order to reach 2000 to 5000 RU. The remaining activated carboxymethylated groups were blocked with a 7 min injection of 1 M ethanolamine pH 8.5.
The 3HQs were directly diluted in running buffer (10 mM HEPES, 150 mM NaCl, 5 mM MgCl2, 0.1 mM EDTA, 0.05% (v/v) Tween-20, 1 mM DTT, pH 7.2, and 2% DMSO) and injected at ten different concentrations using two-fold dilutions series, from 200 µM to ≈ 0.4 μM. The interaction between hPAH and L-Phe in the ≈ 2–1000 μM range was also analyzed, for comparison with literature values. Moreover, L-Phe (at 1 mM) was used as a positive control to collect information on surface integrity and activity throughout the experiment. For competition experiments, 1 mM L-Phe was added to the running buffer. All sensorgrams were processed by first subtracting the binding response recorded from the control surface (reference spot), followed by subtracting an average of the buffer blank injections from the reaction spot. Interactions were assessed from the obtained plots of steady-state SPR response levels against 3HQs concentration, employing the provided Biacore 4000 evaluation software.

[2] = target: T2, hPAH transiently expressed in HEK-293T cells (Homo sapiens, UniProt P00439); assay: hPAH activity and protein level in transfected HEK-293T cells; assay type: cell-based; conditions: 24 h; for hPAH protein content after translation block / increase in hPAH expression (protein level): 50 μM; for hPAH protein content after translation block: then 10 μg/mL puromycin, 1, 3, 6 h; for increase in hPAH expression (protein level): western blot normalized to GAPDH; for hPAH activity in cell lysate: 50 and 100 μM, vs DMSO
T2 construct: expressed in transfected cells; host or cells: HEK-293T (ATCC CRL-11268)
T2 sequence (P00439 1-452): T1 sequence (P00439 1-452)
Description: HEK-293T cells (ATCC CRL-11268) were grown in RPMI 1640 medium (Gibco Life Technologies¸ Carlsbad, CA, USA) and supplemented with heat inactivated (60 °C for 30 min) fetal bovine serum (10%; v/v), penicillin (100 U/mL) and streptomycin (0.1 mg/mL) at 37 °C, in 5% CO2 in a humidified atmosphere. 1 × 10^5 cells were transfected with 750 ng of DNA (eukaryotic vector expressing hPAH; pEF-DEST51-PAH-WT) using lipofectamine (Invitrogen) as the transfection agent. Compounds (50 and 100 μM) or DMSO (0.5 and 1%) were added 4 h after transfection, and cells were further incubated for 24 h. For sample collection cells were trypsinized with 500 μL of TripLE Express (Gibco Life Technologies), centrifuged at 200× g for 5 min, at 4 °C, and washed with PBS. The pellet was resuspended in 50 μL of PBS with 200 μM PMSF and cells were disrupted by passage (≈20×) through a fine needle. The cell debris were removed by centrifugation at 14,000× g for 5 min at 4 °C and the obtained cell lysates were used for enzymatic activity assays and western blot analysis. Three independent cell cultures were performed.
For the stability assays, after 24 h incubation with compounds, protein translation was stopped by the addition of 10 μg/mL puromycin (Sigma-Aldrich). Cells were collected at 0, 1, 3, and 6 h after blockage of translation. Two independent cell cultures were performed.
The hPAH activity of cell lysates was measured essentially as described in [26] in a final volume of 200 μL containing 1 mM L-Phe, 250 mM Na-Hepes, pH 7, 0.1 mg/mL catalase and 20 μL of cell lysate. After 4 min of pre-incubation, 100 μM (NH4)2Fe(II)SO4 was added to the mixture. Two min after ferrous ammonium sulphate addition, the reaction was initiated by the injection of BH4 (75 μM). Tyrosine production was assessed by measuring the increase in fluorescence intensity (λexc 274 nm and λem 304 nm) in a FLUOstar Omega microplate reader (BMG Labtech), at 25 °C, during 30 min. Enzyme activity was determined as the amount of L-Tyr produced per min per mg of total protein. For each cell culture enzymatic assays were performed in triplicate.
For western blot analysis of cell lysates, 4 μg of total protein were applied on an 8 to 16% mini-protean TGX precast polyacrylamide gel (Bio-Rad), and the proteins were transferred to a polyvinylidene fluoride (PVDF; GE Healthcare) membrane and visualized by immunodetection using mouse anti-PAH (MAB 5278; Millipore; Burlington, MA, USA) and mouse anti-glyceraldehyde 3-phosphate dehydrogenase (GAPDH (loading control); sc-365062, Santa Cruz Biotechnology; Dallas, TX, USA) as the primary antibodies and the anti-mouse IgG-HRP (W402B, Promega; Madison, WI, USA) as the secondary antibody. Immunoblots were developed with enhanced chemiluminescent agents (ECL Prime; GE Healthcare) and the images were acquired in a charge-coupled device imager ChemiDoc XRS (Bio-Rad) using the Quantity One software (Bio-Rad).

| Compound | KD (steady-state affinity constant) [1] | hPAH protein content after translation block [2] | increase in hPAH expression (protein level) [2] | hPAH activity in cell lysate [2] | ΔRU reduction in the presence of L-Phe ([1]; 1 mM L-Phe in running buffer) | Kd [1] |
| --- | --- | --- | --- | --- | --- | --- |
| COC(=O)CC[C@H](NC(=O)c1c(O)c(=O)[nH]c2ccc(OC(F)(F)F)cc12)C(=O)OC [Compound 9] | at least mM affinity | hPAH protein content is maintained as a function of time | 1.8 fold | higher activity |  |  |
| CCOC(=O)[C@H](Cc1ccccc1)NC(=O)c1c(O)c(=O)[nH]c2ccc(OC(F)(F)F)cc12 [Compound 3] |  |  |  |  | > 50% | ≥ 121 µM |
| N[C@@H](Cc1ccccc1)C(=O)O [L-Phe, L-phenylalanine, reference compound] |  |  |  |  |  | 47 ± 8 µM |
| O=C(NCCc1ccccc1)c1c(O)c(=O)[nH]c2ccc(OC(F)(F)F)cc12 [Compound 8] |  |  |  |  |  | ≥ 200 µM |
| COC(=O)CNC(=O)c1c(O)c(=O)[nH]c2ccc(OC(F)(F)F)cc12 [Compound 11] | at least mM affinity | hPAH protein content is maintained as a function of time | did not affect the hPAH protein levels | higher activity |  |  |
